The source of these data is ChEMBL document CHEMBL3351770, “Synthesis, antioxidant and cytoprotective evaluation of potential antiatherogenic phenolic hydrazones. A structure-activity relationship insight” (Bioorg Med Chem, 2014).

In general, IC50 refers to the point on the concentration scale where inhibition reaches its midpoint.

Data set [1] in a line: Antioxidant activity assessed as reduction in mouse CRL2181 cells-mediated human LDL oxidation by measuring TBARS level at 1 uM after 18 hrs. It counts as physicochemical, cell-based. The conditions noted are these: read-out: Activity.
Data set [2] can be described thus: Antioxidant activity assessed as reduction in mouse CRL2181 cells-mediated human LDL oxidation by measuring TBARS level at 10 uM after 18 hrs. It counts as physicochemical, cell-based. Set-up: scale not given: the % may be the effect or the level left.
Data set [3] is described as follows: Cytoprotection in mouse CRL2181 cells assessed as reduction in UV-oxidized LDL-induced cytotoxicity by measuring cell viability at 10 uM after 24 hrs by MTT assay relative to untreated control. It counts as functional. (In general: Tetrazolium dyes change colour on reduction, which living cells bring about.)
Data set [4] is described as follows: Cytoprotection in mouse CRL2181 cells assessed as reduction in UV-oxidized LDL-induced cytotoxicity by measuring cell viability at 1 uM after 24 hrs by MTT assay relative to untreated control. The class given is functional.
Data set [5] can be described thus: Antioxidant activity assessed as DPPH radical scavenging activity by UV-Visible spectrophotometry. The class given is physicochemical. (The DPPH test is a chemical assay of radical scavenging.)
Data set [6] is described as follows: Antioxidant activity assessed as superoxide anion radical scavenging activity at 10 uM by PMS-NADH-NBT system based spectrophotometry. The class given is physicochemical.

`COc1cc(/C=N/N2C(=O)CSC2=S)cc(OC)c1O`: the inhibition at 1 µM in data set [1] turned out to be 59%. Besides, the Activity is 5% in data set [2], 85% in data set [3] and 53% in data set [4]. The IC50 in data set [5] amounted to 11.8 µM.

Turning to `COc1cc(/C=N/N(C)C(=O)OCc2ccccc2)cc(OC)c1O.Cl`, in data set [1], the inhibition at 1 µM came out at 10%. The results for the Activity in data set [2], in data set [3] and in data set [4] were 5%, 64% and 55%, respectively. Besides, the IC50 in data set [5] came to 119 µM.

On to `COc1cc(/C=N/Nc2nc3ccccc3s2)ccc1O`, for which, in data set [1], the inhibition at 1 µM is 65%. The Activity in data set [2] is given as 7%; in data set [3], 61%; in data set [4], 44%.

As to `COc1cc(/C=N/NC(=O)OCc2ccccc2)cc(O)c1O`, the inhibition at 1 µM in data set [1] is 17%. In addition, the Activity in data set [2] is 2%; in data set [3], 57%; in data set [4], 34%; in data set [6], 41.4%. Also, the IC50 in data set [5] was 21.3 µM.

On to `COc1cc(/C=N/NC(=O)c2ccncc2)ccc1O` [FTIVAZIDE], for which, in data set [1], the inhibition at 1 µM turned out to be 90%. Besides, the Activity came to 95% in data set [2], 63% in data set [3] and 36% in data set [4]. Moreover, the concentration for half-maximal inhibition (IC50) in data set [5] amounted to 86 µM.

Take `COc1cc(/C=N/NC(=O)c2ccncc2)cc(OC)c1O`: the inhibition at 1 µM in data set [1] is 48%. Besides, the results for the Activity in data set [2], in data set [3] and in data set [4] were 7%, 65% and 34%, respectively. Moreover, in data set [5], the concentration for half-maximal inhibition (IC50) was found to be 17 µM.

Consider `Cl.Oc1ccc(/C=N/Nc2nncc3ccccc23)cc1O`, for which the inhibition at 1 µM in data set [1] stood at 51%. In addition, the Activity in data set [2] is listed as 3%; in data set [3], 72%; in data set [4] it was 34%. Further, the half-maximal inhibitory concentration (IC50) in data set [5] is 6.7 µM.

Take `O=C(/C=C/c1ccc(O)c(O)c1)O[C@@H]1C[C@](O)(C(=O)O)C[C@@H](O)[C@H]1O` [CHLOROGENIC ACID]: the Activity in data set [6] was found to be 35.5%.

For the compound `COc1cc(/C=N/N2C(=O)CSC2=S)ccc1O`, the inhibition at 1 µM in data set [1] stood at 66%. Moreover, the Activity in data set [2] is given as 5%; in data set [3] it was 72%; in data set [4], 34%. In addition, the IC50 in data set [5] worked out at 12.9 µM.

As for `O=C(N/N=C/c1ccccc1O)OCc1ccccc1`, in data set [1], the inhibition at 1 µM came to 106%. Further, the Activity in data set [2] was found to be 104%; in data set [3], 34%; in data set [4], 24%. In data set [5], the IC50 was > 1000 µM.

Take `COc1cc(/C=N/Nc2nc3ccccc3s2)cc(OC)c1OC`: the inhibition at 1 µM in data set [1] turned out to be 100%. The Activity in data set [2] is 14%; in data set [3] it was 57%; in data set [4], 4%; in data set [6], 34%. In addition, in data set [5], the IC50 amounted to 43.1 µM.

Turning to `COc1cc(/C=N/Nc2nncc3ccccc23)cc(O)c1O.Cl`, the inhibition at 1 µM in data set [1] was 27%. The Activity in data set [2] worked out at 3%; in data set [3], 97%; in data set [4], 69%; in data set [6], 36.7%.

As to `O=C(N/N=C/c1ccc(O)c(O)c1)OCc1ccccc1`, in data set [1], the inhibition at 1 µM is 27%. In addition, the Activity was 6% in data set [2], 84% in data set [3] and 48% in data set [4]. For the same compound, the 50% inhibitory concentration (IC50) in data set [5] came out at 7.3 µM.

For `O=C(N/N=C/c1ccc(O)c(O)c1)c1ccncc1`, the inhibition at 1 µM in data set [1] was found to be 19%. Also, the values for the Activity in data set [2], in data set [3] and in data set [4] were 4%, 101% and 84%, respectively. Also, in data set [5], the concentration for half-maximal inhibition (IC50) stood at 6.1 µM.

With `COc1cc(/C=N/N(C)c2nc3ccccc3s2)cc(OC)c1O`, in data set [1], the inhibition at 1 µM was found to be 5%. Besides, the Activity in data set [2] came out at 3%; in data set [3], 110%; in data set [4], 107%; in data set [6] it was 43.3%.

On to `COc1cc(/C=N/NC(=O)c2ccncc2)cc(O)c1O`, for which the inhibition at 1 µM in data set [1] is 59%. The Activity in data set [2] came to 8%; in data set [3], 80%; in data set [4], 41%. For the same compound, the half-inhibitory concentration (IC50) in data set [5] is 18.4 µM.

Regarding `COc1cc(/C=N/Nc2nncc3ccccc23)ccc1O.Cl`, the inhibition at 1 µM in data set [1] is 46%. Also, the Activity in data set [2] came to 4%; in data set [3], 100%; in data set [4] it was 24%. Also, in data set [5], the IC50 is 19.9 µM.

As for `COc1cc(/C=N/Nc2nc3ccccc3s2)cc(OC)c1O`, in data set [1], the inhibition at 1 µM came to 36%. The Activity in data set [2] turned out to be 3%; in data set [3], 55%; in data set [4] it was 39%; in data set [6], 35%.

For `COc1cc(/C=N/NC(=O)OCc2ccccc2)ccc1O`, the inhibition at 1 µM in data set [1] worked out at 75%. Further, the Activity is given as 36% in data set [2], 73% in data set [3] and 73% in data set [4]. In data set [5], the IC50 was found to be 39.7 µM.

As for `COc1cc(/C=N/N(C)c2nc3ccccc3s2)ccc1O`, the inhibition at 1 µM in data set [1] came out at 20%. The values for the Activity in data set [2], in data set [3] and in data set [4] were 9%, 96% and 96%, respectively. For the same compound, the IC50 in data set [5] was 26.6 µM.

For the compound `COc1cc(/C=N/N(C)c2nc3ccccc3s2)cc(OC)c1OC`, the inhibition at 1 µM in data set [1] came to 84%. In addition, the Activity came out at 82% in data set [2], 7% in data set [3] and 7% in data set [4]. In data set [5], the IC50 was > 1000 µM.

In the case of `COc1cc(/C=N/NC(=O)OCc2ccccc2)cc(OC)c1OC`, the inhibition at 1 µM in data set [1] was 95%. Further, the Activity is reported as 100% in data set [2], 4% in data set [3] and 5% in data set [4]. Also, the IC50 in data set [5] was > 1000 µM.

Turning to `COc1cc(/C=N/N(C)C(=O)OCc2ccccc2)ccc1O.Cl`, the inhibition at 1 µM in data set [1] is 58%. Besides, the Activity in data set [2] is 5%; in data set [3], 71%; in data set [4] it was 41%. Also, in data set [5], the IC50 is 26.2 µM.

Turning to `Cc1c(C)c2c(c(C)c1O)CC[C@@](C)(CCC[C@H](C)CCC[C@H](C)CCCC(C)C)O2` [ALPHA-TOCOPHEROL], in data set [1], the inhibition at 1 µM was determined as 78%. The Activity in data set [2] was found to be 55%; in data set [3], 47%.

`O=C(N/N=C/c1ccccc1O)c1ccncc1` [SALINAZID]: in data set [1], the inhibition at 1 µM came to 75%. Also, the values for the Activity in data set [2], in data set [3] and in data set [4] were 31%, 24% and 20%, respectively. Also, in data set [5], the IC50 is > 1000 µM.

As to `COc1cc(/C=N/Nc2nncc3ccccc23)cc(OC)c1O`, the inhibition at 1 µM in data set [1] came to 38%. For the same compound, the Activity in data set [2] came to 4%; in data set [3], 66%; in data set [4], 46%. Besides, the IC50 in data set [5] came out at 28 µM.

As for `COc1cc(/C=N/Nc2nc3ccccc3s2)cc(O)c1O`, in data set [1], the inhibition at 1 µM worked out at 56%. Besides, the figures for the Activity in data set [2], in data set [3] and in data set [4] were 7%, 54% and 38%, respectively. Also, the IC50 in data set [5] is 6.8 µM.

As for `COc1cc(/C=N/NC(=O)c2ccncc2)cc(OC)c1OC`, the inhibition at 1 µM in data set [1] is 95%. Besides, the results for the Activity in data set [2], in data set [3] and in data set [4] were 94%, 4% and 4%, respectively. For the same compound, the IC50 in data set [5] was > 1000 µM.

Take `COc1cc(/C=N/Nc2nncc3ccccc23)cc(OC)c1OC.Cl`: the inhibition at 1 µM in data set [1] amounted to 96%. For the same compound, the values for the Activity in data set [2], in data set [3] and in data set [4] were 93%, 5% and 6%, respectively. The IC50 in data set [5] stood at 40.2 µM.

`Cc1c(C)c2c(c(C)c1O)CCC(C)(C(=O)O)O2` (stereo unspecified) [TROLOX]: the inhibition at 1 µM in data set [1] was 69%. Also, the Activity in data set [2] was determined as 33%; in data set [3] it was 76%; in data set [4] it was 50%; in data set [6], 22.2%. The IC50 in data set [5] turned out to be 20.1 µM.

Turning to `COc1cc(/C=N/NC(=O)OCc2ccccc2)cc(OC)c1O`, in data set [1], the inhibition at 1 µM came to 38%. Further, the values for the Activity in data set [2], in data set [3] and in data set [4] were 3%, 69% and 45%, respectively. Besides, the concentration for half-maximal inhibition (IC50) in data set [5] worked out at 60.5 µM.

On to `COc1cc(/C=N/N(C)C(=O)OCc2ccccc2)cc(OC)c1OC.Cl`, for which the inhibition at 1 µM in data set [1] came out at 98%. The Activity is 90% in data set [2], 6% in data set [3] and 6% in data set [4]. For the same compound, the IC50 in data set [5] was > 7.1 µM.

Consider `Oc1ccc(/C=N/Nc2nc3ccccc3s2)cc1O`, for which the inhibition at 1 µM in data set [1] worked out at 44%. For the same compound, the Activity in data set [2] is reported as 7%; in data set [3], 57%; in data set [4], 33%; in data set [6], 41.7%.

With `COc1cc(/C=N/NC(=O)OCc2ccccc2)c(O)cc1O`, the inhibition at 1 µM in data set [1] amounted to 74%. For the same compound, the Activity in data set [2] is 6%; in data set [3], 79%; in data set [4] it was 43%. Also, the IC50 in data set [5] turned out to be 13.5 µM.

As to `COc1cc(/C=N/NC(=O)c2ccncc2)c(O)cc1O`, in data set [1], the inhibition at 1 µM came out at 87%. Besides, the Activity was found to be 82% in data set [2], 20% in data set [3] and 18% in data set [4]. Moreover, the IC50 in data set [5] was found to be 15.3 µM.

As to `O=C1CSC(=S)N1/N=C/c1ccccc1O`, the inhibition at 1 µM in data set [1] was 79%. Besides, the Activity in data set [2] worked out at 5%; in data set [3] it was 87%; in data set [4], 26%. Besides, the IC50 in data set [5] is 13.1 µM.
